In the supplement of paper PMC10307832:

How the values were obtained:
Experiment in all cases: relative viability (nuclei count vs DMSO), 5 days (fraction); higher = more cells survive
[1] = compound: O=S(=O)(c1ccccc1)N(CC(F)(F)F)c1ccc(C(O)(C(F)(F)F)C(F)(F)F)cc1 + CC(C)C[C@H](NC(=O)[C@H](Cc1ccccc1)NC(=O)c1cnccn1)B(O)O [Bortezomib] (partner 0.002 µM)
In short: (§1)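 One day after seeding in 1536-well plates, lung cancer cell lines were dosed by pin tool. Dosing was either single-drug or a fixed anchor-drug dose plus five library-drug doses (not always all listed) in √10 steps. After 5 days, nuclei were stained in one fix-and-stain step and counted on 4× images, and relative viability is the nuclei count of treated wells over that of vehicle wells, given as the median of duplicate plates.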

[2] = compound: C1=CC2=C(C=CC(=C2)C=C3C(=O)NC(=NCC4=CC=CS4)S3)N=C1 [RO-3306] + CCNC(=O)c1noc(-c2cc(C(C)C)c(O)cc2O)c1-c1ccc(CN2CCOCC2)cc1 [Luminespib] (partner 0.01 µM)
In short: as §1

[3] = compound: C1=CC2=C(C=CC(=C2)C=C3C(=O)NC(=NCC4=CC=CS4)S3)N=C1 [RO-3306] + Cc1nc(NC(=O)N2CCC[C@H]2C(N)=O)sc1-c1ccnc(C(C)(C)C(F)(F)F)c1 [Alpelisib] (partner 2 µM)
In short: as §1

[4] = compound: C1=CC2=C(C=CC(=C2)C=C3C(=O)NC(=NCC4=CC=CS4)S3)N=C1 [RO-3306] + CS(=O)(=O)N1CCN(Cc2cc3nc(-c4cccc5[nH]ncc45)nc(N4CCOCC4)c3s2)CC1 [Pictilisib] (partner 1 µM)
In short: as §1

| Cell Line | relative viability ([1]; first compound 0.8 µM) | relative viability ([1]; first compound 2.53 µM) | relative viability ([1]; first compound 8 µM) | relative viability ([2]; first compound 0.01 µM) | relative viability ([2]; first compound 0.03162 µM) | relative viability ([2]; first compound 0.1 µM) | relative viability ([2]; first compound 0.3162 µM) | relative viability ([2]; first compound 1 µM) | relative viability ([3]; first compound 0.01 µM) | relative viability ([3]; first compound 0.03162 µM) | relative viability ([3]; first compound 0.1 µM) | relative viability ([3]; first compound 0.3162 µM) | relative viability ([3]; first compound 1 µM) | relative viability ([4]; first compound 0.01 µM) | relative viability ([4]; first compound 0.03162 µM) | relative viability ([4]; first compound 0.1 µM) | relative viability ([4]; first compound 0.3162 µM) | relative viability ([4]; first compound 1 µM) |
| --- | --- | --- | --- | --- | --- | --- | --- | --- | --- | --- | --- | --- | --- | --- | --- | --- | --- | --- |
| BEN | 0.843 | 0.844 | 0.866 | 0.331 | 0.337 | 0.33 | 0.4 | 0.447 | 1.3 | 0.738 | 0.926 | 1.09 | 1.08 | 0.559 | 0.487 | 0.532 | 0.697 | 0.623 |
| NCI-H1623 | – | – | – | 0.574 | 0.451 | 0.617 | 0.471 | 0.5 | – | – | – | – | – | – | – | – | – | – |
| NCI-H661 | 0.885 | 0.883 | 0.642 | 0.869 | 1.02 | 0.934 | 0.953 | 0.936 | 0.736 | 0.735 | 0.686 | 0.745 | 0.688 | 0.41 | 0.377 | 0.356 | 0.392 | 0.363 |
| NCI-H2342 | – | – | – | 0.742 | 0.627 | 0.727 | 0.759 | 0.73 | – | – | – | – | – | – | – | – | – | – |
| SW 1573 | 1.34 | 0.936 | 0.811 | 0.205 | 0.218 | 0.198 | 0.302 | 0.217 | 0.701 | – | 0.848 | 0.832 | 0.905 | 0.536 | 0.406 | 0.534 | 0.534 | 0.39 |
| NCI-H1734 | 1.18 | 0.917 | 1.07 | 0.168 | 0.172 | 0.205 | 0.195 | 0.171 | 0.687 | 0.595 | 0.697 | 0.726 | 0.719 | 0.53 | 0.435 | 0.468 | 0.452 | 0.447 |
| LC-2-ad | 1.02 | 1.03 | 0.898 | 1.01 | 0.907 | 0.966 | 1.09 | 1.02 | 1.07 | 0.832 | 0.846 | 0.887 | 0.812 | 0.43 | 0.275 | 0.377 | 0.488 | 0.428 |
| NCI-H1651 | 0.981 | 0.957 | 0.797 | 1.21 | 0.873 | 0.857 | 1.03 | 0.802 | 1.07 | 0.927 | 0.913 | 0.867 | 0.987 | 0.598 | 0.359 | 0.574 | 0.601 | 0.634 |
| IA-LM | 0.727 | 0.522 | 0.77 | – | – | – | – | – | 0.895 | 0.56 | 0.725 | 0.708 | 0.948 | 0.339 | 0.242 | 0.311 | 0.278 | 0.36 |
| NCI-H838 | 0.907 | 0.863 | 0.906 | 0.523 | 0.274 | 0.24 | 0.316 | 0.221 | 0.992 | 0.972 | 1.01 | 1.04 | 0.999 | 0.411 | 0.34 | 0.432 | 0.505 | 0.393 |
| NCI-H1650 | 0.203 | 0.187 | 0.194 | 0.183 | 0.217 | 0.2 | 0.227 | 0.224 | – | – | – | – | – | 0.491 | 0.503 | 0.48 | 0.583 | 0.414 |
| EBC-1 | 0.405 | 0.357 | 0.415 | – | – | – | – | – | 0.895 | 0.727 | 1.04 | 0.965 | 0.904 | 0.454 | 0.327 | 0.397 | 0.448 | 0.286 |
| NCI-H1793 | – | – | – | 0.129 | 0.162 | 0.195 | 0.205 | 0.191 | 0.686 | 0.577 | 0.739 | 0.59 | 0.565 | 0.402 | 0.276 | 0.34 | 0.258 | 0.389 |
| LK-2 | – | – | – | 0.187 | – | 0.18 | 0.167 | 0.228 | 1.27 | 0.897 | 1.02 | 1.31 | 1.03 | 0.482 | 0.499 | 0.64 | 0.681 | 0.534 |
| NCI-H358 | – | – | – | 0.408 | 0.292 | 0.376 | 0.316 | 0.229 | 0.868 | 0.711 | 0.759 | 0.809 | 0.556 | 0.308 | 0.387 | 0.319 | 0.321 | 0.31 |
| Calu-6 | 0.885 | 0.852 | 0.769 | – | – | – | – | – | 1.21 | 0.91 | 1.04 | 0.931 | 0.982 | 1.1 | 0.97 | 0.934 | 0.866 | 0.91 |
| SK-MES-1 | – | – | – | 0.708 | 0.973 | 0.705 | 0.605 | 0.968 | 0.9 | 0.553 | 0.831 | 0.983 | 0.922 | 0.324 | 0.334 | 0.353 | 0.413 | 0.355 |
| SW 900 | – | – | – | 0.148 | 0.181 | 0.172 | 0.175 | 0.183 | – | – | – | – | – | – | – | – | – | – |
| NCI-H1944 | – | – | – | 0.83 | 0.667 | 0.681 | 0.62 | 0.678 | 0.789 | 0.739 | 0.816 | 0.934 | 0.829 | 0.283 | 0.299 | 0.313 | 0.368 | 0.325 |
| NCI-H1395 | – | – | – | 0.915 | 0.878 | 0.622 | 0.653 | 0.519 | 1.12 | 1.22 | 1.1 | 1.03 | 1.02 | 0.589 | 0.911 | 0.547 | 0.644 | 0.753 |
| A549 | – | – | – | – | – | – | – | – | 0.744 | – | 0.72 | 0.756 | 0.715 | 0.551 | 0.485 | 0.477 | 0.504 | 0.323 |
| HCC-78 | 0.531 | 0.39 | 0.52 | – | – | – | – | – | 0.326 | 0.279 | 0.359 | 0.376 | 0.339 | 0.198 | 0.213 | 0.209 | 0.224 | 0.229 |
| NCI-H1703 | 0.389 | 0.185 | 0.381 | – | – | – | – | – | 0.467 | 0.324 | 0.342 | 0.262 | 0.307 | 0.241 | 0.221 | 0.237 | 0.241 | 0.254 |
